Data as given in patent US20210283211A1, “COMPOSITIONS AND METHODS OF ALLEVIATING RESISTANCE TO CHEMOTHERAPY” (CITY OF HOPE, priority 2019, published 2021).
pIC50: −log10 of the molar value. “Also recorded” adds a separate entry of the source.

Experiments:
H1993 cells = assay: Carfilzomib dose response on cell proliferation, IC50 determination; assay type: cell-based, human; conditions: increasing dose
Description: Cell proliferation and apoptosis assay. Cell proliferation assays were performed using cell lines stably transfected with NucLight Red Lentivirus (Essen Bioscience) to accurately visualize and count the nucleus of a single cell. Cells were seeded on a 96-well plate and allowed to adhere for 24 hours. Test compounds were added at indicated concentrations. Caspase-3/7 Green Apoptosis Reagent (Essen Bioscience) was also added as a green fluorescent indicator of caspase-3/7-mediated apoptotic activity. To monitor cell proliferation and apoptosis over time, the plate was placed in the IncuCyte S3 Live-Cell Analysis System (Essen BioScience) and images were acquired every 2 hours. Data analysis was generated by the IncuCyte software using a red fluorescence mask to accurately count each cell nucleus and a green fluorescence mask to measure apoptosis over time.
(§1) Then a sublethal dose was used to determine the effect of these compounds on ITGB4 and PXN expression and caspase activity (FIG. 9I). […] These eleven compounds were further screened in the cisplatin-resistant cell line H2009. […] Further, carfilzomib was tested in another cisplatin-resistant cell line H1993.

[1] = tested on: ITGB4 and PXN expression, γH2AX in H358 cells; assay: Immunoblot after sublethal dose; assay type: cell-based, human; conditions: 72 hours
Description: West blotting: Cell lysates were prepared with 1×RIPA buffer (MilliporeSigma) and denatured in 1× reducing sample buffer at 95° C. for 5 minutes. Protein samples (15 μg) were run on 4-15% TGX gels (Bio-Rad, Hercules, Calif., USA) and transferred onto nitrocellulose membranes (Bio-Rad). Blots were blocked with 5% non-fat milk in TBS-T for 1 hour at room temperature and probed with primary antibody diluted in 2.5% BSA in TBS-T overnight at 4° C. After three washes with TBS-T, blots were incubated with HRP-conjugated secondary antibodies for 2 hours at room temperature. After three more washes, bands of interest were visualized via chemiluminescence using Western Bright ECL HRP substrate (Advansta, Menlo Park, Calif., USA) and imaged with the ChemiDoc MP imager (Bio-Rad).
as §1

H2009 cells = assay: Scratch wound healing assay; assay type: cell-based, human
Description: Scratch wound healing assay. Cells were seeded on a 96-well Image Lock (Essen BioScience, Ann Arbor, Mich., USA) plate to reach 90% confluence by the next day. After cell adherence, 96 uniform wounds were created simultaneously using the WoundMaker (Essen BioScience) tool. Cells were washed once with serum-free medium and replenished with complete medium. To monitor wound healing, the plate was placed in the IncuCyte S3 Live-Cell Analysis System (Essen BioScience) and images were acquired every hour. Data analysis was generated by the IncuCyte software using a set confluence mask to measure relative wound density over time.
To discern the effect of knocking down ITGB4 on cell migration, H1993 and H2009 cells were transfected with the control or ITGB4-specific siRNA in 6-well plates and 12 hours post transfection, the cells were trypsinized and reseeded at high density in a 96-well plate. […] While both cell lines transfected with the control siRNA achieved 100% confluency of the wound within 48 hours, H1993 and 2009 cells in which ITGB4 was knocked down reached ˜60% and ˜80% confluency, respectively; neither cell line reached 100% confluency even after 96 h (FIG. 3F). Next the rate of wound closure was estimated. The rate was determined by dividing initial wound width by the time taken to close the wound. […] Similarly, in the case of the H2009 cells, the wound width closure rate dropped from 22 μm/h to about 18 μm/h (FIG. 3G). […] Additionally, up regulation of expression of other integrin β forms in response to ITGB4 knockdown was checked and an increase in the expression of ITGB1, ITGB2, and ITGB3 at mRNA level was found (FIG. 3I). The effect of ITGB3 silencing in the ITGB4 knocked down cells was further tested but no significant difference in their proliferation was found (FIG. 3J).

H358 cells = assay: Cell-based rescreen of top virtual-screen hits, IC50 determination; conditions: Homo sapiens, NCI-H358, 0.1 μM to 10 μM, 72 hours
Description: Cell viability assay: Cell Counting Kit-8 (CCK-8) was purchased from Dojindo Molecular Technologies (Rockville, Md., USA). Cells were seeded on a 96-well plate and allowed to adhere in complete medium for 24 hours. Test compounds were added to 100 μl of medium at the indicated concentrations for 72 hours. Ten μl of the CCK-8 reagent were added to each well and absorbance at 450 nm was measured using a Tecan Spark 10M multimode microplate reader.
A virtual screen of a library of 1440 FDA-approved drugs using binding pockets in the N-terminal domain of PXN (FIG. 9H) identified several putative hits. The top 40 hits were then rescreened employing a cell-based assay to determine their efficacy using H358 cells.

[2] = tested on: ITGB4, PXN, USP1, VDAC1, CD133 in patient-derived organoids; assay: Immunoblot of treated patient-derived organoids; assay type: cell-based, human; conditions: 48 hours, printed 2.5 mM and 5 mM

With `CC(C)C[C@H](NC(=O)[C@H](CCc1ccccc1)NC(=O)CN1CCOCC1)C(=O)N[C@@H](Cc1ccccc1)C(=O)N[C@@H](CC(C)C)C(=O)[C@@]1(C)CO1` [Carfilzomib] the pIC50 (H1993 cells; H1993 cells) was 5.75, the pIC50 (H1993 cells; Homo sapiens, NCI-H1993, H1993 cells) was 5.77 and the “apoptosis, DNA damage (γH2AX) and ITGB4 expression” value [1] was “induced apoptosis and caused DNA damage”. The wound confluency (H2009 cells; 200 nM, untreated >90%) was 79%, the “cell migration / wound healing” value (H2009 cells; sublethal dose (carfilzomib 50-200 nM)) was “significant inhibition of wound healing and reduction in wound closure rate; also recorded: dose-dependent inhibition of cell migration” and the pIC50 (H358 cells) was 9.10. For the same compound, the “protein expression by immunoblot” value [2] was “decrease in the expression of ITGB4, USP1, PXN and VDAC1; also recorded: decreased expression of ITGB4, PXN, USP1, VDAC1 and CD133”.
